Laboratory results as given in US10064891B2, “Assembly of micelle aggregates of surfactant micelles and silver nanoparticles and use as antibacterial agent” (Otago Innovation Limited, priority 2013, dated 2018).

What was measured:
[1] = Determination of cmc / cmceff by electrical conductivity; assay type: physicochemical; details: H2O, 25° C.; for cmc of pure surfactant (cmceff at 0 mM AgNO3): no AgNO3
Description: Electrical conductivity measurements (mS cm^−1) were performed on five SDS solutions over a range of concentrations, with each solution containing a different amount of added AgNO3. […] Standard deviations for each data point are <0.014 mS cm^−1 in all cases. Closed symbols represent the data points used for the linear regression analysis below the cmc, and the open symbols for the analysis above the cmc. For each sample, regardless of the electrolyte content, as the SDS concentration was varied, an inflection point in the electrical conductivity was observed, indicating the cmc. A linear regression analysis of the conductivity data of each of the five samples was performed above and below the inflection point. In all cases, no significant deviations from linearity were observed over the concentration ranges. A dashed line has been added to one data set to indicate the point of intersection of the two corresponding linear equations, thus indicating the cmc. The cmc of pure SDS in H2O in the absence of AgNO3 was determined to be 8.1 mM. The curve represents a critical ‘cmc boundary’ for the SDS/AgNO3 system, i.e. the cmceff of SDS at a given AgNO3 concentration between 0-10 mM.
Following the procedure detailed in Example 1, electrical conductivity measurements were performed on sodium dodecylbenzenesulfonate (SDBS), sodium lauryl ether sulfate (SLES) and ammonium lauryl sulfate (ALS) solutions containing different amounts of added AgNO3 in order to determine the cmceff of each surfactant. […] Linear regression analysis was performed as described in Example 1. The cmc of pure SDBS, SLES and ALS at 25° C. was determined to be 1.4, 3.1 and 6.7 mM, respectively.

[2] = absence of any salts; cited from earlier work

Compound | Cmceff ([1]; [AgNO3] 0.6 mM) [mM] | cmc of pure surfactant (cmceff at 0 mM AgNO3) [1] [mM] | cmc of pure SDS in water (known) [2] [mM] | Cmceff ([1]; [AgNO3] 2.9 mM) [mM]
CCCCCCCCCCCCOS(=O)(=O)O.N [ALS, ammonium lauryl sulfate] | 4.6 | 6.7 | – | –
CCCCCCCCCCCCOS(=O)(=O)[O-].[Na+] [SDS, sodium dodecyl sulfate] | – | 8.1 | 8.0 to 8.3 | –
sodium lauryl ether sulfate [SLES] | 2.1 | 3.1 | – | 1.9
